This is an account of results in PubChem BioAssay (NCI).

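Tested at 5 concentrations; 48 h exposure; 96-well plates; endpoints linearly interpolated, else capped at highest concentration. GI50 marks 50% less growth. Definition used: TGI = concentration required for complete inhibition of growth.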

Among the test systems are RXF 393 renal; SK-MEL-5 melanoma; UO-31 renal; A549 NSCLC; SN12C renal; SNB-78 CNS; ACHN renal; DU-145 prostate; A498 renal.
Common to all, as to test: DTP human tumour cell line panel, 48 h

With `Cc1ccc2c(c1)CN1c3ccc(C)cc3CN2C1c1ccccc1O`, the TGI (in general, the concentration at which net growth stops) in the assay on RXF 393 renal is 61200 nM; with SK-MEL-5 melanoma, 30500 nM; in the assay with UO-31 renal, 88200 nM; in the assay with A549 NSCLC, greater than 100000 nM; with SN12C renal it was greater than 100000 nM; with SNB-78 CNS, greater than 100000 nM. In the assay on ACHN renal, this molecule had a concentration for total growth inhibition (TGI) greater than 100000 nM.
With `O=C(OCc1ccc2c(Br)cc(Br)c(O)c2n1)c1cc2ccccc2[nH]1`, the concentration for 50% growth inhibition (GI50) (in general, the concentration giving 50% growth inhibition) is 338 nM in the assay on RXF 393 renal; 1610 nM in the assay on SK-MEL-5 melanoma; 406 nM with UO-31 renal; 910 nM in the assay on DU-145 prostate; 1420 nM with A549 NSCLC; 839 nM in the assay with SN12C renal. Further, the 50% growth inhibitory concentration (GI50) in the assay with ACHN renal was 352 nM; in the assay on A498 renal, 1560 nM. Further, the TGI was determined as 1260 nM in the assay with RXF 393 renal; 2990 nM with SK-MEL-5 melanoma; 1190 nM in the assay on UO-31 renal; 2180 nM with DU-145 prostate; 3620 nM in the assay with A549 NSCLC; 2180 nM in the assay with SN12C renal. The TGI in the assay with ACHN renal is 1270 nM; in the assay with A498 renal, 2960 nM.
Regarding `Cc1ccc2c(-c3ccnc(Nc4ccc5c(c4)OCCO5)n3)c(-c3ccc(C(F)(F)F)cc3)nn2n1`, the GI50 in the assay with RXF 393 renal was 4390 nM; in the assay on SK-MEL-5 melanoma it was 2040 nM; in the assay with UO-31 renal, 2410 nM; in the assay on DU-145 prostate it was greater than 20600 nM; in the assay on A549 NSCLC, 13300 nM; with SN12C renal, 5260 nM. Moreover, the GI50 with ACHN renal is 16500 nM; in the assay with A498 renal, 2130 nM. Also, the TGI is greater than 25000 nM in the assay on RXF 393 renal; 7420 nM in the assay with SK-MEL-5 melanoma; greater than 25000 nM in the assay with UO-31 renal; greater than 25000 nM in the assay on DU-145 prostate; greater than 25000 nM in the assay with A549 NSCLC; greater than 25000 nM with SN12C renal. In addition, the TGI is greater than 25000 nM in the assay on ACHN renal and 18000 nM in the assay on A498 renal.
With `COC(=O)OC1C(O[C@H]2C[C@H]3[C@@H]4CC=C5C[C@@H](O)CC[C@]5(C)[C@H]4CC[C@]3(C)[C@H]2[C@H](C)C(=O)CCC(C)C)OCC(O)C1OC1OCC(O)C(O)C1OC(=O)c1ccc(OC)cc1` (stereo not given in full), the GI50 with RXF 393 renal was less than 2.75 nM; with SK-MEL-5 melanoma, 14 nM; in the assay with UO-31 renal, 17 nM; in the assay with DU-145 prostate, 12.7 nM; in the assay on A549 NSCLC, 12.5 nM; in the assay on SN12C renal, 1460 nM. The GI50 is 72.1 nM with ACHN renal and less than 2.75 nM in the assay with A498 renal. Moreover, the TGI is 9.48 nM with RXF 393 renal; 279 nM in the assay on SK-MEL-5 melanoma; 89.8 nM with UO-31 renal; 5180 nM with DU-145 prostate; 5240 nM in the assay with A549 NSCLC; greater than 27500 nM in the assay with SN12C renal. For the same molecule, the results for the concentration for total growth inhibition (TGI) in the assay with ACHN renal and in the assay on A498 renal were greater than 27500 nM and 10.8 nM, respectively.
Take `Cn1c([N+](=O)[O-])cnc1C=C1C(=O)c2ccccc2C1=O`: the GI50 is 2600 nM with RXF 393 renal; 8670 nM with SK-MEL-5 melanoma; 3830 nM in the assay with UO-31 renal; 6450 nM in the assay on DU-145 prostate; 12200 nM with A549 NSCLC; 3830 nM in the assay with SN12C renal. Moreover, the GI50 with ACHN renal is 3750 nM; in the assay with A498 renal, 7050 nM. Moreover, the TGI in the assay on RXF 393 renal came out at 10300 nM; in the assay with SK-MEL-5 melanoma it was 21900 nM; with UO-31 renal, 16200 nM; in the assay on DU-145 prostate, 19600 nM; in the assay on A549 NSCLC it was 41300 nM; in the assay with SN12C renal, 16100 nM. In addition, the values for the concentration for total growth inhibition (TGI) with ACHN renal and in the assay on A498 renal were 13700 nM and 22600 nM, respectively.
As to `CCNc1nc(O)c(/C=C2\C=Nc3ncccc32)s1`, the GI50 with RXF 393 renal was 2050 nM; with SK-MEL-5 melanoma, 3000 nM; with UO-31 renal, 3440 nM; with DU-145 prostate it was 3250 nM; in the assay with A549 NSCLC, 16500 nM; with SN12C renal it was 3580 nM. Also, the figures for the GI50 with ACHN renal and in the assay on A498 renal were 2580 nM and 2120 nM, respectively. In addition, the TGI was 4290 nM in the assay on RXF 393 renal; 9470 nM with SK-MEL-5 melanoma; greater than 100000 nM with UO-31 renal; 47400 nM in the assay on DU-145 prostate; greater than 100000 nM in the assay on A549 NSCLC; 37500 nM in the assay on SN12C renal. The TGI with ACHN renal is greater than 100000 nM; with A498 renal, 6150 nM.
Regarding `CCN1C(=S)N(CC)C2C1NC(=S)N2/N=C/C=C/c1ccccc1OC` (stereo not given), the GI50 with RXF 393 renal is 92 nM; in the assay on SK-MEL-5 melanoma, 137 nM; in the assay with UO-31 renal it was 621 nM; in the assay on DU-145 prostate, 354 nM; in the assay with A549 NSCLC, 503 nM; in the assay on SN12C renal it was 670 nM. The GI50 with ACHN renal was 464 nM; in the assay on A498 renal, 83.1 nM. In addition, the TGI is 498 nM in the assay with RXF 393 renal; 3530 nM in the assay on SK-MEL-5 melanoma; greater than 93000 nM in the assay on UO-31 renal; 25300 nM with DU-145 prostate; greater than 100000 nM in the assay on A549 NSCLC; 24800 nM with SN12C renal. Moreover, the TGI in the assay with ACHN renal is 40500 nM; in the assay with A498 renal it was 715 nM.
As to `CN(C)CCCC1(c2ccc(F)cc2)OCc2cc(-c3cccc4[nH]ccc34)ccc21` (stereo not given), the GI50 is 1460 nM with RXF 393 renal; 1750 nM in the assay with SK-MEL-5 melanoma; 1350 nM in the assay on UO-31 renal; 1770 nM with DU-145 prostate; 1600 nM with A549 NSCLC; 1550 nM in the assay with SN12C renal. Further, the GI50 in the assay with ACHN renal was 1680 nM; in the assay with A498 renal, 1560 nM. Moreover, the TGI in the assay on RXF 393 renal was 2880 nM; in the assay with SK-MEL-5 melanoma it was 3170 nM; with UO-31 renal, 2630 nM; in the assay with DU-145 prostate, 3230 nM; in the assay with A549 NSCLC, 3070 nM; in the assay on SN12C renal, 2960 nM. In addition, the values for the TGI in the assay on ACHN renal and in the assay with A498 renal were 3040 nM and 2960 nM, respectively.
Regarding `CC(=O)O[C@H]1C(=O)[C@@]2(C)C([C@H](OC(=O)c3ccccc3)[C@]3(O)C[C@H](OC(=O)[C@H](O)[C@@H](NC(=O)c4ccccc4)c4ccccc4)C(C)=C1C3(C)C)[C@]1(OC(C)=O)CO[C@@H]1C[C@@H]2O` (stereo not given in full), the GI50 with RXF 393 renal is 5.16 nM; with SK-MEL-5 melanoma, 7.85 nM; in the assay with UO-31 renal, 1410 nM; in the assay on DU-145 prostate, 6.73 nM; with A549 NSCLC, less than 5 nM; in the assay on SN12C renal, 14.2 nM. The figures for the GI50 with ACHN renal and with A498 renal were 945 nM and 16.1 nM, respectively. In addition, the TGI in the assay with RXF 393 renal is 38.2 nM; with SK-MEL-5 melanoma, greater than 50000 nM; with UO-31 renal it was greater than 50000 nM; in the assay with DU-145 prostate it was 27.2 nM; in the assay with A549 NSCLC, greater than 50000 nM; with SN12C renal it was greater than 50000 nM. In addition, the TGI in the assay on ACHN renal and with A498 renal was greater than 50000 nM in each case.
